Measured values reported in the supplement of paper PMC10331698.
± gives the standard deviation of the averaged measurements.

How the values were obtained:
Assay in all cases: level (log10 ratio to DMSO vehicle control); higher = higher biomarker level / cell amount than vehicle control
Details in all cases: in DMSO
[1] = compound: CCCCCCCCC(F)(F)C(F)(F)C(F)(F)C(F)(F)C(F)(F)C(F)(F)F [1-(Perfluorohexyl)octane]
Protocol: (§1)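 BioMAP Diversity Plus panel of 12 human primary cell co-culture systems (3C, 4H, LPS, SAg, BT, BF4T, BE3C, CASM3C, HDF3CGF, KF3CT, MyoF, Mphg). Compounds were added 1 h before stimulation and left for 24 h (MyoF 48 h; BT 72 h for soluble read-outs or 6 d for IgG). Biomarkers were read by ELISA, cytotoxicity by SRB, PBMC viability and proliferation by Alamar Blue. Each well value was divided by the mean of 8 DMSO control wells on the same plate and log10 transformed; duplicate blinded samples were tested at 4 concentrations.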

[2] = compound: CNS(=O)(=O)C(F)(F)C(F)(F)C(F)(F)C(F)(F)C(F)(F)C(F)(F)C(F)(F)C(F)(F)F [N-Methylperfluorooctanesulfonamide]
Protocol: as §1

[3] = compound: O=C(O)C(F)(F)C(F)(F)C(F)(F)C(F)(F)C(F)(F)C(F)(F)C(F)(F)C(F)(F)C(F)(F)C(F)(F)C(F)(F)C(F)(F)C(F)(F)F [Perfluorotetradecanoic acid]
Protocol: as §1

[4] = compound: O=C(O)C(F)(F)C(F)(F)C(F)(F)C(F)(F)C(F)(F)C(F)(F)C(F)(F)C(F)(F)C(F)(F)C(F)(F)C(F)(F)C(F)(F)F [Perfluorotridecanoic acid]
Protocol: as §1

[5] = compound: O=C(O)C(F)(F)C(F)(F)C(F)(F)C(F)(F)C(F)(F)F [Perfluorohexanoic acid]
Protocol: as §1

[6] = compound: O=C(O)C(F)(F)OC(F)(F)C(F)(F)OC(F)(F)C(F)(F)C(F)(F)C(F)(F)F [Perfluoro-3,6-dioxadecanoic acid]
Protocol: as §1

[7] = compound: O=C(O)CCC(F)(F)C(F)(F)C(F)(F)C(F)(F)C(F)(F)F [2H,2H,3H,3H-Perfluorooctanoic acid]
Protocol: as §1

Test System	level (log10) ([1]; 6700 nM)	level (log10) ([1]; 20000 nM)	level (log10) ([2]; 6700 nM)	level (log10) ([2]; 20000 nM)	level (log10) ([2]; 60000 nM)	level (log10) ([3]; 6700 nM)	level (log10) ([3]; 20000 nM)	level (log10) ([4]; 1500 nM)	level (log10) ([4]; 4400 nM)	level (log10) ([4]; 13000 nM)	level (log10) ([4]; 40000 nM)	level (log10) ([5]; 6700 nM)	level (log10) ([5]; 20000 nM)	level (log10) ([5]; 60000 nM)	level (log10) ([6]; 6700 nM)	level (log10) ([6]; 20000 nM)	level (log10) ([6]; 60000 nM)	level (log10) ([7]; 6700 nM)	level (log10) ([7]; 20000 nM)	level (log10) ([7]; 60000 nM)
SAg:CCL2/MCP-1	-0.01	0.0015 ± 0.018	-0.0205 ± 0.0035	-0.003 ± 0.011	-0.004 ± 0.0085	-0.021 ± 0.0057	-0.0185 ± 0.0064	-0.013 ± 0.016	-0.0275 ± 0.0035	-0.0265 ± 0.0064	0.005 ± 0.014	-0.01 ± 0.0057	-0.0255 ± 0.0078	0.0135 ± 0.018	0.017 ± 0.088	-0.0255 ± 0.00071	-0.0895 ± 0.026	-0.005 ± 0.0085	-0.007 ± 0.02	-0.019 ± 0.025
4H:CD106/VCAM-1	0.011 ± 0.04	-0.005	0 ± 0.0014	0.015 ± 0.0042	-0.0435 ± 0.032	-0.0805 ± 0.037	-0.0775 ± 0.0078	-0.028 ± 0.0071	-0.065 ± 0.04	-0.107 ± 0.0064	-0.089 ± 0.018	-0.006 ± 0.028	0.0095 ± 0.00071	0.041 ± 0.045	-0.0095 ± 0.018	-0.0195 ± 0.022	-0.039 ± 0.0099	-0.0135 ± 0.0092	-0.0325 ± 0.026	-0.0405 ± 0.029
3C:CXCL8/IL-8	-0.005 ± 0.0028	0.0005 ± 0.019	-0.0035 ± 0.0078	0.0575 ± 0.012	0.064 ± 0.0028	-0.0045 ± 0.032	0.0485 ± 0.076	0.017 ± 0.025	-0.01 ± 0.017	-0.144 ± 0.19	-0.715 ± 0.14	-0.006 ± 0.0042	0.005 ± 0.0057	0.0635 ± 0.037	-0.006	-0.0025 ± 0.0064	0.0305 ± 0.013	-0.032 ± 0.075	0.005 ± 0.0042	0.0265 ± 0.0092
BE3C:HLA-DR	0.0095 ± 0.036	0.0015 ± 0.005	-0.0225 ± 0.0064	-0.0445 ± 0.012	-0.039 ± 0.041	-0.013 ± 0.041	-0.0135 ± 0.06	-0.0105 ± 0.04	-0.0325 ± 0.013	-0.0355 ± 0.0078	-0.0195 ± 0.019	-0.0025 ± 0.0021	-0.011 ± 0.0028	-0.012 ± 0.0099	-0.038 ± 0.021	-0.08 ± 0.0085	-0.135 ± 0.017	0 ± 0.0042	-0.009 ± 0.0071	-0.0175 ± 0.012
4H:CD62P/P-selectin	0.0245 ± 0.039	-0.007 ± 0.016	0.0265 ± 0.011	-0.0345 ± 0.011	-0.0685 ± 0.0092	0.0015 ± 0.011	0.0055 ± 0.021	-0.0285 ± 0.016	-0.017 ± 0.0085	0.0125 ± 0.013	0.021 ± 0.011	0.0235 ± 0.064	0.0555 ± 0.032	0.0255 ± 0.028	0.015 ± 0.09	0.0205 ± 0.066	0.0165 ± 0.013	0.005 ± 0.048	-0.041 ± 0.073	0.002 ± 0.034
BE3C:CXCL10/IP-10	0.0055 ± 0.013	-0.0025 ± 0.012	-0.0415 ± 0.026	-0.0475 ± 0.0064	-0.0795 ± 0.049	0.008 ± 0.0042	-0.0275 ± 0.019	-0.0015 ± 0.029	-0.019 ± 0.027	-0.038 ± 0.03	-0.0365 ± 0.056	0.0095 ± 0.018	0.0125 ± 0.0092	0.0245 ± 0.011	-0.0415 ± 0.025	-0.0795 ± 0.033	-0.626 ± 0.02	-0.009 ± 0.0042	-0.006 ± 0.0028	-0.0075 ± 0.005
LPS:CD62E/E-Selectin	-0.005 ± 0.031	0.0115 ± 0.029	-0.024 ± 0.011	0.01 ± 0.02	0.03 ± 0.018	-0.0035 ± 0.011	0.01 ± 0.04	0.004 ± 0.02	0.0025 ± 0.028	-0.002 ± 0.0085	-0.0065 ± 0.005	-0.01 ± 0.0042	-0.0065 ± 0.012	-0.003 ± 0.0028	0.008 ± 0.034	0.006 ± 0.04	0.024 ± 0.04	0.0405 ± 0.029	0.022 ± 0.028	0.027 ± 0.021
BF4T:MMP-9	-0.014 ± 0.02	0.005 ± 0.025	-0.0095 ± 0.011	0.008 ± 0.0014	-0.021 ± 0.045	-0.0165 ± 0.047	0 ± 0.035	0.01 ± 0.027	0.0075 ± 0.043	-0.0015 ± 0.036	0.033 ± 0.078	0.0215 ± 0.0035	-0.01 ± 0.027	0.0215 ± 0.018	-0.035 ± 0.0057	-0.0215 ± 0.0064	-0.051 ± 0.02	-0.0095 ± 0.03	-0.022 ± 0.027	0.015 ± 0.018
BF4T:IL-1alpha	-0.017 ± 0.018	0.012 ± 0.02	0.0065 ± 0.0078	0.0005 ± 0.015	0.0285 ± 0.049	-0.014 ± 0.013	0.0235 ± 0.032	0.016 ± 0.025	-0.0195 ± 0.011	-0.009 ± 0.02	0.017 ± 0.018	-0.001 ± 0.0042	-0.0035 ± 0.012	0.007 ± 0.0042	0.008 ± 0.0057	0.0015 ± 0.00071	-0.0055 ± 0.005	-0.0035 ± 0.0078	-0.0065 ± 0.016	0.017 ± 0.021
SAg:CXCL8/IL-8	-0.013 ± 0.0085	0.032 ± 0.041	-0.0435 ± 0.026	-0.0395 ± 0.005	-0.0275 ± 0.0035	-0.028 ± 0.051	0.0035 ± 0.069	0.018 ± 0.072	-0.0025 ± 0.021	-0.001 ± 0.0057	0.0035 ± 0.09	-0.049 ± 0.052	-0.009 ± 0.038	0.0035 ± 0.084	-0.018 ± 0.0028	-0.0295 ± 0.018	-0.0385 ± 0.022	-0.029 ± 0.079	-0.0335 ± 0.039	0.0525 ± 0.018
BT:B cell Proliferation	0.0145 ± 0.011	0.012 ± 0.011	0.006 ± 0.0028	-0.007 ± 0.023	-0.0195 ± 0.03	-0.0055 ± 0.023	-0.0035 ± 0.028	-0.0035 ± 0.052	0.029 ± 0.016	0.01 ± 0.011	0.0265 ± 0.035	-0.047 ± 0.048	-0.0035 ± 0.042	0.0275 ± 0.063	0.012 ± 0.0071	0.0415 ± 0.019	0.055 ± 0.011	0.0515 ± 0.028	0.078 ± 0.059	0.05 ± 0.05
SAg:CD62E/E-Selectin	-0.019 ± 0.013	0.003 ± 0.0099	-0.021 ± 0.0042	-0.0475 ± 0.019	-0.043 ± 0.0071	0 ± 0.0028	0.019 ± 0.0028	0.0065 ± 0.018	-0.0015 ± 0.0064	0.012 ± 0.0057	0.006 ± 0.0014	0.001 ± 0.018	-0.01 ± 0.023	0.0195 ± 0.005	0.027 ± 0.058	0.0485 ± 0.025	0.065 ± 0.081	-0.01 ± 0.03	0.0015 ± 0.025	0.029 ± 0.016
4H:SRB	0.0035 ± 0.019	-0.002 ± 0.0042	-0.0045 ± 0.0092	-0.041 ± 0.0014	-0.0635 ± 0.054	-0.014 ± 0.028	-0.0155 ± 0.063	-0.0115 ± 0.0064	-0.022 ± 0.0014	-0.054 ± 0.042	-0.443 ± 0.037	-0.002 ± 0.0057	-0.0105 ± 0.00071	0.0045 ± 0.015	-0.005 ± 0.018	-0.002 ± 0.0057	-0.065 ± 0.041	-0.004 ± 0.0099	-0.0115 ± 0.016	-0.001 ± 0.014
SAg:CD69	-0.0045 ± 0.011	-0.0045 ± 0.028	-0.0325 ± 0.0064	-0.0405 ± 0.022	-0.0685 ± 0.053	-0.0155 ± 0.016	-0.018 ± 0.028	-0.0075 ± 0.037	-0.053 ± 0.03	-0.0305 ± 0.025	-0.0685 ± 0.0078	-0.0065 ± 0.00071	-0.0115 ± 0.021	-0.0125 ± 0.0092	0 ± 0.013	-0.0405 ± 0.00071	-0.105 ± 0.067	-0.0265 ± 0.043	-0.025 ± 0.038	-0.0145 ± 0.028
